The values that follow come from ChEMBL document CHEMBL4316653, “Cytotoxic Components from Hypericum elodeoides Targeting RXRα and Inducing HeLa Cell Apoptosis through Caspase-8 Activation and PARP Cleavage” (J Nat Prod, 2019).

What is called inhibition is the change of the read-out against control, counted positive when it falls. As usually defined, the Kd is the concentration at which binding is half-saturated.

The structures appear in SMILES notation. Active and inactive are the calls of the source. No cut-off for these calls is given here.

The target of assay [1] is T1, Retinoic acid receptor RXR-alpha (Homo sapiens) (UniProt P19793).
T1 sequence (whole entry): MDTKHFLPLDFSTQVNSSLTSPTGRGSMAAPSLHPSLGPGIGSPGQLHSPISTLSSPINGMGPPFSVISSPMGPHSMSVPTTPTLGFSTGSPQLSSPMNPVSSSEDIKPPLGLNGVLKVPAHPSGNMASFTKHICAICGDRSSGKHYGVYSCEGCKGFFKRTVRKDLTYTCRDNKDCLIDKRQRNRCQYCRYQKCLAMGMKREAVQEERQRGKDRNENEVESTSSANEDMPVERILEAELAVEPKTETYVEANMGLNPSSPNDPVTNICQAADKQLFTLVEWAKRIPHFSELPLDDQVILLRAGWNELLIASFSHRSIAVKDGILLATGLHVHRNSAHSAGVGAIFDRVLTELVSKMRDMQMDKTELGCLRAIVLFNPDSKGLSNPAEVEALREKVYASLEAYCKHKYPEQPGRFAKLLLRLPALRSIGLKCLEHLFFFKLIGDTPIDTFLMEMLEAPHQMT
In words: (§1) Binding affinity to recombinant human RXRalpha LBD ([…] residues) expressed in Escherichia coli BL21 (DE3) by fluorescence quenching assay.

Assay [2] has as its system HeLa. Briefly: Cytotoxicity against human HeLa cells assessed as cell viability at 50 uM measured after 48 hrs by MTT assay. The format is functional. To be noted: read-out: Activity. A general note: Formazan colour is commonly taken as a measure of viable cells.
Assay [3] has as its target T1, Retinoic acid receptor RXR-alpha (Homo sapiens). Briefly: Transrepression of GAL4-fused RXRalpha LBD (unknown origin) expressed in 293T cells assessed as inhibition of 9-cis-RA-induced transcription at 50 uM measured after 12 hrs by dual-luciferase reporter gene assay. Type of assay: cell-based. Background: A reporter such as luciferase makes a cellular process visible.

The subject of assay [4] is MCF7. Briefly: Cytotoxicity against human MCF7 cells assessed as cell viability at 50 uM measured after 48 hrs by MTT assay. The format is functional. To be noted: MCF7, 48 h, read-out: Activity.
The test system of assay [5] is SMMC-7721. In words: Cytotoxicity against human SMMC7721 cells assessed as cell viability at 50 uM measured after 48 hrs by MTT assay. Conditions: SMMC-7721, 48 h, read-out: Activity. Type of assay: functional.
The test system of assay [6] is HepG2. Briefly: Cytotoxicity against human HepG2 cells assessed as cell viability at 50 uM measured after 48 hrs by MTT assay. Type of assay: functional. To be noted: HepG2, 48 h, read-out: Activity.
Assay [7] concerns the target T1, Retinoic acid receptor RXR-alpha (Homo sapiens). In words: Transrepression of GAL4-fused RXRalpha LBD (unknown origin) expressed in 293T cells assessed as inhibition of 9-cis-RA-induced transcription measured after 12 hrs by dual-luciferase reporter gene assay. The format is cell-based.
The target of assay [8] is T2, Retinoic acid receptor RXR-alpha (Homo sapiens, UniProt P19793).
T2 sequence (P19793 whole entry): T1 sequence (whole entry)
The assay is described as §1.

The subject of assay [9] is MCF7. In words: Cytotoxicity against human MCF7 cells assessed as reduction in cell viability at 50 uM measured after 48 hrs by MTT assay. Type of assay: functional, cell-based.
Assay [10] has as its system HeLa. In words: Induction of apoptosis in human HeLa cells assessed as increase in caspase-8 activity at 50 uM measured after 10 hrs by Caspase-Glo luminescence assay. Type of assay: functional, cell-based.
Assay [11] relates to HeLa. In words: Cytotoxicity against human HeLa cells assessed as inhibition of cell proliferation at 50 uM measured after 48 hrs by MTT assay. The format is functional.
For assay [12], the system named is HeLa. Briefly: Induction of apoptosis in human HeLa cells assessed as increase in cleaved PARP expression after 24 hrs by Western blot analysis. The format is functional, cell-based. In general terms: A western blot detects proteins with antibodies after separation by electrophoresis.
Assay [13] relates to SMMC-7721. In words: Cytotoxicity against human SMMC7721 cells assessed as reduction in cell viability at 50 uM measured after 48 hrs by MTT assay. Type of assay: functional, cell-based.
In assay [14] the test system is HeLa. Briefly: Induction of apoptosis in human HeLa cells assessed as increase in caspase-3 activity at 50 uM measured after 10 hrs by Caspase-Glo luminescence assay. Type of assay: functional, cell-based.
Assay [15] relates to HepG2. Briefly: Cytotoxicity against human HepG2 cells assessed as reduction in cell viability at 50 uM measured after 48 hrs by MTT assay. The format is functional, cell-based.
Assay [16] concerns HeLa. Briefly: Induction of apoptosis in human HeLa cells assessed as increase in cleaved PARP expression at 50 uM by Western blot analysis. The format is functional, cell-based. Conditions: TDE = time-dependent effect.
Assay [17] has as its system HeLa. In words: Induction of apoptosis in human HeLa cells assessed as increase in cleaved PARP expression at 20 uM by Western blot analysis. The format is functional, cell-based. To be noted: TDE = time-dependent effect.
Assay [18] relates to HeLa. In words: Induction of apoptosis in human HeLa cells assessed as increase in caspase-3 activity at 20 uM measured after 10 hrs by Caspase-Glo luminescence assay. The format is functional, cell-based.
The subject of assay [19] is HeLa. In words: Induction of apoptosis in human HeLa cells assessed as increase in caspase-8 activity at 20 uM measured after 10 hrs by Caspase-Glo luminescence assay. Type of assay: functional, cell-based.

As for `Cc1cc2c(cc1-c1cc(/C=C/C(=O)O)ccc1O)C(C)(C)CCC2(C)C`, the Activity entry in assay [1] was “Dose-dependent effect”.
Consider `COc1cc([C@H]2OC(=O)[C@H]3[C@@H]2CO[C@@H]3c2ccc(O)c(OC)c2)ccc1O`, for which the viability at 50 µM with HeLa [2], with MCF7 [4], in the assay with SMMC-7721 [5] and with HepG2 [6] was < 50% each time. Further, the inhibition entry in assay [3] is “Active”.
For the compound `COc1cc(-c2cc(=O)c3c(O)cc(O)cc3o2)ccc1O`, in assay [7], the inhibition result was “Dose-dependent effect”. In addition, the inhibition result in assay [3] is “Active”.
For the compound `COc1ccc2c(=O)c3cccc(O)c3oc2c1`, the viability at 50 µM in the assay with HeLa [2], in the assay on MCF7 [4], with SMMC-7721 [5] and in the assay with HepG2 [6] was < 50% in each case.
For `CC[C@H](C)c1cc(=O)c2c(O)cc(O)cc2o1`, the Kd in assay [8] came to 68.3 µM. The Activity entry in [1] is “Dose-dependent effect”; in the assay on HeLa [12], “Dose-dependent effect”; in the assay on HeLa [16], “Tde”. Also, in assay [7], the inhibition entry was “Dose-dependent effect”. Moreover, the inhibition result in assay [3] was “Active”. Moreover, the outcome in the assay with MCF7 [9], in the assay with SMMC-7721 [13], in the assay on HeLa [14] and in the assay on HepG2 [15] was inactive. The result in the assay on HeLa [10] was Active. For the same compound, the inhibition at 50 µM with HeLa [11] was > 50%.
For `CC(C)=CCOc1cc2c(=O)c3c(O)cc(O)cc3oc2cc1O`, the Kd in assay [8] was determined as 14 µM. Besides, the results for the Activity result (in assay [1]; with HeLa [17]; in the assay with HeLa [12]) were “Dose-dependent effect”, “Tde” and “Dose-dependent effect”, respectively. For the same compound, the inhibition result in assay [7] is “Dose-dependent effect”. The inhibition entry in assay [3] was “Active”. Also, the outcome in the assay on HeLa [18], with MCF7 [9], in the assay with SMMC-7721 [13] and in the assay with HepG2 [15] was inactive. Moreover, the inhibition at 50 µM with HeLa [11] is > 50%. For the same compound, the outcome in the assay with HeLa [19] was Active.
Take `CC(C)c1cc(=O)c2c(O)cc(O)cc2o1`: the inhibition entry in assay [3] was “Active”.
